Entries after “also recorded” stand apart in the source; their conditions may differ.
What was measured:
[1] = tested on: TLR-stimulated macrophages; test: qPCR of CREB-dependent gene mRNA in TLR-stimulated macrophages; format: cell-based, mouse
Experimental: Bone-marrow derived macrophages were differentiated for 7 days in DMEM supplemented with 5 ng/ml recombinant M-CSF (R&D systems), 2 mM glutamine, 10% foetal calf serum, penicillin and streptomycin. […]
mRNA was extracted from macrophages using the RNeasy Micro Kit following the manufacturers' instructions (Qiagen). cDNA was generated from 1 μg of total RNA using the iScript cDNA synthesis kit and quantified by qPCR using the SsoFast EvaGreen Supermix on a CFX96 real time system (Bio-Rad Laboratories). The relative expression of each gene was calculated from Ct values using the Pfaffl method^30 and was normalized against the mRNA levels of 18S RNA. The following primers were used: IL-10-F, […]; IL-10-R, […]; c-Fos-F, […]; c-Fos-R, […]; nurr1-F, […]; nurr1-R, […]; nurr77-F, […]; nurr77-R, […]; 18S-F, […]; 18S-R, […]; IL-1ra-F, […]; IL-1ra-R, […]; SPHK1-F, […]; SPHK1-R, […]; LIGHT-F, […]; LIGHT-R, […]; ArgI-F, […]; ArgI-R, […]; IFN-F, […]; IFNγ-R, […].
[…]. Biochem J 434:93-104) using the indicated antibodies. RNA was extracted using the RNeasy Micro Kit (Qiagen). cDNA was generated using the iScript cDNA synthesis kit and quantified by qPCR using the SsoFast EvaGreen Supermix (Bio-Rad Laboratories). The relative expression of each gene was calculated from Ct values using the Pfaffl method (Pfaffl M W (2001) A new mathematical model for relative quantification in real-time RT-PCR. Nucleic Acids Res 29:e45) and was normalized against the mRNA levels of 18S or GAPDH RNA. Fold-induction for each gene was reported relative to untreated control cells, which was set to 1. The concentrations of TNFα, IL-6, IL-10, IL-12p40, and RANTES in culture supernatants were measured using the Bio-Plex Pro Assay system from Bio-Rad. Further details in supplementary information.
mRNA was extracted from cells using the RNeasy Micro Kit following the manufacturers' instructions (Qiagen). cDNA was generated from 1 μg of total RNA using the iScript cDNA synthesis kit and quantified by qPCR using the SsoFast EvaGreen Supermix on a CFX96 real time system (Bio-Rad Laboratories). The relative expression of each gene was calculated from Ct values using the Pfaffl method (5) and was normalized against the mRNA levels of 18S RNA or GAPDH. Results are reported relative to untreated control cells, which was set to 1. The following primers were used: […]

[2] = tested on: CRTC3; test: CRTC3 phosphorylation in macrophages (phosphoproteomics, immunoblotting); format: cell-based
Experimental: RAW264.7 cells were labelled using the Stable Isotope Labelling of Amino Acids in Cell Culture (SILAC) method. […] The cells were lysed in detergent-free lysis buffer (8 M urea, 50 mM Tris pH8.2, 10 mM glycerol 2-phosphate, 50 mM sodium fluoride, 5 mM sodium pyrophosphate, 1 mM EDTA, 1 mM sodium orthovanadate, 10 mM DTT, 1 mM PMSF, 1 μg/ml aprotinin, 1 μg/ml leupeptin), the extract clarified by centrifugation and protein concentration determined using the Bradford method. 2 mg of cell extract protein from each experimental condition were mixed in a 1:1:1 ratio and then alkylated with 50 mM iodoacetamide for 30 min. […] Phosphopeptides from these samples were enriched using a standard Fe^3+-IMAC enrichment protocol^32 and measured by LC-MS/MS. […] The data was analysed using MaxQUANT^33.
Cells were rinsed in ice-cold PBS and extracted in lysis buffer (50 mM Tris/HCl pH 7.4, 1 mM EDTA, 1 mM EGTA, 50 mM NaF, 5 mM sodium pyrophosphate, 10 mM sodium β-glycerol 1-phosphate, 1 mM dithiothreitol, 1 mM sodium orthovanadate, 0.27 M sucrose, 1% (v/v) Triton X-100, 1 μg/ml aprotinin, 1 μg/ml leupeptin and 1 mM phenylmethylsulphonyl fluoride). Cell extracts were clarified by centrifugation at 14000×g for 10 min at 4° C. and protein concentrations were determined using the Bradford assay. […]

[3] = LPS-stimulated macrophages with MRT67307

O=C(NCCCNc1nc(Nc2cccc(CN3CCOCC3)c2)ncc1C1CC1)C1CCC1 [MRT67307]
time at which IL-10 mRNA levels reach a maximum [1, 3]: 1 h | time at which IL-10 mRNA returns to near basal levels [1, 3]: 4 h | mRNA of CREB-dependent genes c-fos, nurr1 and nurr77 ([1]; TLR-stimulated macrophages): increase | IL-10 mRNA ([1]; TLR/LPS-stimulated macrophages): dramatically increased | phosphorylation of CRTC3 ([2]; 2 μM MRT67307, Pam3CSK4-stimulated macrophages, phosphoproteomic study): robustly dephosphorylated at Ser62, Ser329 and Ser370; also recorded: blocked | phosphorylation of CRTC3 at Ser370 ([2]; LPS stimulation): blocked

From patent publication US10233157B2, “SIK inhibitor for use in a method of treating an inflammatory and/or immune disorder” (Dana-Farber Cancer Institute, Inc., priority 2012, dated 2019)
